Results from US20130324489A1, “NEW ANTIFUNGAL COMPOSITIONS” (DSM IP ASSETS B.V., priority 2011, published 2013).
Where “and” joins values, the source holds several entries; their conditions need not be identical. Equal values may be shown once.

Tests used:
Penicillium italicum = experiment: In vitro antifungal activity, 96-well microtiter plates; format: cell-based; settings: 0.63 ppm natamycin, 25° C.
Description: Subsequently, 100 μl of a Botrytis cinerea suspension prepared in PCB medium was used to inoculated each well with 2.5×10^3 spores/ml.
After incubation of the microtiter plates at 25° C., the in vitro antifungal activity (%) of the individual active ingredients was assessed by calculating the reduction in mould growth observed in the presence of the active ingredient in comparison to the mould growth observed in the absence of the active ingredient. The expected antifungal activity (E in %) of the active ingredient combination was calculated according to the Colby equation (Colby, 1967): […]
wherein X and Y are the observed antifungal activities (in %) of the individual active ingredients X and Y, respectively. If the observed antifungal activity (O in %) of the combination exceeds the expected antifungal activity (E in %) of the combination and the resulting synergy factor O/E is thus >1.0, the combined application of the active ingredients leads to a synergistic antifungal effect.
The experiment was conducted as described in Example 10, except for the fact that the following compositions were tested:
Furthermore, Penicillium italicum was used for inoculation. The antifungal activity (in %) of the individual and combined active ingredients was determined according to the method described in Example 10.

Botrytis cinerea = experiment: Treatment of wounded apples inoculated with Botrytis cinerea (dip, mould growth); format: in vivo; settings: 250 ppm natamycin, 20° C.
Description: Twelf fresh, organic apples were used per treatment. Each apple was wounded once using a cork borer according to the method described by de Lapeyre de Bellaire and Dubois (1987). Subsequently, each wound was inoculated with 10 μl of a Botrytis cinerea suspension containing 1×10^5 of spores/ml. […] In addition, the antifungal compositions comprised 3.1% (w/w) beeswax, 0.76% (w/w) glycerol, 0.66% (w/w) polyoxyethylene sorbitan monostearate (Tween 60), 0.03% (w/w) methylhydroxyethylcellulose (MHEC), 0.02% (w/w) xanthan gum, 0.02% (w/w) anti-foaming agent, 0.15% (w/w) citric acid and 0.01% (w/w) potassium sorbate. The pH of the compositions was 4. […] The treated apples were incubated in a closed box in the dark at 20° C.
During incubation, the treated apples were assessed on mould growth according to the two methods described in Example 8.

[1] = 5.0 ppm vinclozolin, 10 ppm procymidone, alone or natamycin + one of them, day 3
[2] = 50 ppm procymidone or both, day 5
[3] = 250 ppm procymidone or both, day 6
[4] = 250 ppm procymidone or both, day 7-11
[5] = 250 ppm procymidone or both, day 12-13
[6] = 250 ppm procymidone or both, day 13
[7] = 250 ppm procymidone or both, day 14
[8] = 250 ppm procymidone or both, day 14-25
[9] = 250 ppm procymidone or both, day 15
[10] = 250 ppm procymidone or both, day 17
[11] = 250 ppm procymidone or both, day 18
[12] = 250 ppm procymidone or both, day 20
[13] = 250 ppm procymidone or both, day 22
[14] = 250 ppm procymidone or both, day 25
[15] = 500 ppm procymidone or both, day 4
[16] = 500 ppm procymidone or both, day 5-6
[17] = 500 ppm procymidone or both, day 7-11
[18] = 500 ppm procymidone or both, day 12
[19] = 500 ppm procymidone or both, day 13
[20] = 500 ppm procymidone or both, day 14
[21] = 500 ppm procymidone or both, day 14-25
[22] = 500 ppm procymidone or both, day 15
[23] = 500 ppm procymidone or both, day 17
[24] = 500 ppm procymidone or both, day 18
[25] = 500 ppm procymidone or both, day 20
[26] = 500 ppm procymidone or both, day 22
[27] = 500 ppm procymidone or both, day 25

| Structure (SMILES) | Observed antifungal activity O (%) (Penicillium italicum; [1]) | Observed antifungal activity O (%) (Penicillium italicum; [2]) | Number of moulded apples/total number of 12 apples (Botrytis cinerea; [3]) | Number of moulded apples/total number of 12 apples (Botrytis cinerea; [4]) | Number of moulded apples/total number of 12 apples (Botrytis cinerea; [5]) | Observed antifungal activity O (%) (Botrytis cinerea; [6]) | Observed antifungal activity O (%) (Botrytis cinerea; [7]) | Number of moulded apples/total number of 12 apples (Botrytis cinerea; [8]) | Observed antifungal activity O (%) (Botrytis cinerea; [9]) | Observed antifungal activity O (%) (Botrytis cinerea; [10]) | Observed antifungal activity O (%) (Botrytis cinerea; [11]) | Observed antifungal activity O (%) (Botrytis cinerea; [12]) | Observed antifungal activity O (%) (Botrytis cinerea; [13]) | Observed antifungal activity O (%) (Botrytis cinerea; [14]) | Number of moulded apples/total number of 12 apples (Botrytis cinerea; [15]) | Number of moulded apples/total number of 12 apples (Botrytis cinerea; [16]) | Number of moulded apples/total number of 12 apples (Botrytis cinerea; [17]) | Number of moulded apples/total number of 12 apples (Botrytis cinerea; [18]) | Number of moulded apples/total number of 12 apples (Botrytis cinerea; [19]) | Observed antifungal activity O (%) (Botrytis cinerea; [19]) | also measured |
| --- | --- | --- | --- | --- | --- | --- | --- | --- | --- | --- | --- | --- | --- | --- | --- | --- | --- | --- | --- | --- | --- |
| CC12CC1(C)C(=O)N(c1cc(Cl)cc(Cl)c1)C2=O (centres unmarked) [Procymidone, procymidone] | 0 | 0 | 7 and 7/12 | 8 and 8/12 | 12/12 | 65 | 55 | 12/12 | 50 | 44 | 37 | 31 | 26 | 17 | 8 and 8/12 | 8 and 8/12 | 8 and 8/12 | 10 and 10/12 | 11 and 11/12 | 75 | Observed antifungal activity O (%) (Botrytis cinerea; [20]): 71%; Number of moulded apples/total number of 12 apples (Botrytis cinerea; [21]): 12/12; Observed antifungal activity O (%) (Botrytis cinerea; [22]): 67%; Observed antifungal activity O (%) (Botrytis cinerea; [23]): 57%; Observed antifungal activity O (%) (Botrytis cinerea; [24]): 51%; Observed antifungal activity O (%) (Botrytis cinerea; [25]): 45%; Observed antifungal activity O (%) (Botrytis cinerea; [26]): 38%; Observed antifungal activity O (%) (Botrytis cinerea; [27]): 26% |
| C[C@@H]1C/C=C/C=C/C=C/C=C/[C@H](O[C@@H]2O[C@H](C)[C@@H](O)[C@H](N)[C@@H]2O)C[C@@H]2O[C@](O)(C[C@@H](O)C[C@H]3O[C@@H]3/C=C/C(=O)O1)C[C@H](O)[C@H]2C(=O)O [Natamycin, natamycin] | 0 | 0 | 12/12 | 12/12 | 12/12 | 31 | 26 | 12/12 | 23 | 18 | 18 | 16 | 14 | 14 | 11 and 11/12 | 12 and 12/12 | 12 and 12/12 | 12/12 | 12/12 | 31 | Observed antifungal activity O (%) (Botrytis cinerea; [20]): 26%; Number of moulded apples/total number of 12 apples (Botrytis cinerea; [21]): 12/12; Observed antifungal activity O (%) (Botrytis cinerea; [22]): 23%; Observed antifungal activity O (%) (Botrytis cinerea; [23]): 18%; Observed antifungal activity O (%) (Botrytis cinerea; [24]): 18%; Observed antifungal activity O (%) (Botrytis cinerea; [25]): 16%; Observed antifungal activity O (%) (Botrytis cinerea; [26]): 14%; Observed antifungal activity O (%) (Botrytis cinerea; [27]): 14% |
